Measured values from publication PMC9856072, “Complexed Crystal Structure of the Dihydroorotase Domain of Human CAD Protein with the Anticancer Drug 5-Fluorouracil” (Biomolecules, 2023).
Changes are numbered by the printed parent chain.

Experiments:
Format in all cases: binding
[1] = target: T1, dihydroorotase domain of human CAD (huDHOase) (Homo sapiens, UniProt P27708); assay: co-crystal structure ([…] Å) and intrinsic fluorescence quenching
T1 construct: residues 1456–1846 in human CAD protein, C-terminal His tag
T1 sequence (P27708 1456-1846): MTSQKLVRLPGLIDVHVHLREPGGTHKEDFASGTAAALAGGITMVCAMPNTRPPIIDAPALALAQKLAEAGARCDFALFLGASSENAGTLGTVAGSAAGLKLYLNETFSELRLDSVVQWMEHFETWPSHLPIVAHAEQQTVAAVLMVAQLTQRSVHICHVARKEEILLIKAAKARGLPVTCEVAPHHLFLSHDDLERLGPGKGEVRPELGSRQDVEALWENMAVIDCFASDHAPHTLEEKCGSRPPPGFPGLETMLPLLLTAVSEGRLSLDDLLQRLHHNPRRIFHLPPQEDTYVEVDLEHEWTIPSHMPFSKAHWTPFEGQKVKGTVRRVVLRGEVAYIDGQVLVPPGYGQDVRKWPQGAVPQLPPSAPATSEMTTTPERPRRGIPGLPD

[2] = target: T2, dihydroorotase domain of human CAD (huDHOase) (Homo sapiens, UniProt P27708, R1475A); assay: intrinsic fluorescence quenching titration
T2 construct: residues 1456–1846 in human CAD protein, C-terminal His tag
T2 sequence (P27708 1456-1846 R1475A): T1 sequence (P27708 1456-1846) with R20A

[3] = target: T3, dihydroorotase domain of human CAD (huDHOase) (Homo sapiens, UniProt P27708, T1562A); assay: intrinsic fluorescence quenching titration
T3 construct: residues 1456–1846 in human CAD protein, C-terminal His tag
T3 sequence (P27708 1456-1846 T1562A): T1 sequence (P27708 1456-1846) with T107A

[4] = target: T1, dihydroorotase domain of human CAD (huDHOase); assay: co-crystal structure ([…] Å)

Structure (SMILES)	Kd [1]	Kd [2]	Kd [3]	co-crystal structure (1.64 Å) [4]
O=c1[nH]cc(F)c(=O)[nH]1 [5-FU, 5-fluorouracil]	91.2 ± 1.7 µM	161.5 ± 1.6 µM	146 ± 2.1 µM	–
O=C(O)CC(O)C(=O)O (stereo not shown) [malate]	–	–	–	This complexed structure revealed that malate is bound at the active site of huDHOase
